Reference: US7635572B2, “Methods for conducting assays for enzyme activity on protein microarrays” (Life Technologies Corporation, priority 2004, dated 2009)
Where two headings read alike, the source gives them in different places.

Experiments:
[1] = molecular target: plurality of kinases (Table 5) (Homo sapiens, UniProt O75716); assay: Further analysis of a plurality of inhibitors and a plurality of kinases on microarray (Example IX, Table 5); assay type: biochemical; details: plate C3;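 note: inhibition of each kinase by the inhibitors is given as a qualitative level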;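 for Inhibition level, CAMK2D: level 0 none or unclear then 1 little or marginal then 2 substantial inhibition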;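 for Inhibition level, CDKL3: level 0 no or unclear inhibition to Level 2 substantial inhibition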;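 for Inhibition level, ITK: level 0 none or unclear then 1 little or marginal then 2 substantial inhibition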
[2] = molecular target: T1, plurality of kinases (Table 5) (Homo sapiens, UniProt P54753); assay: as above; assay type: biochemical; details: plate B5
T1 sequence (P54753 34-998): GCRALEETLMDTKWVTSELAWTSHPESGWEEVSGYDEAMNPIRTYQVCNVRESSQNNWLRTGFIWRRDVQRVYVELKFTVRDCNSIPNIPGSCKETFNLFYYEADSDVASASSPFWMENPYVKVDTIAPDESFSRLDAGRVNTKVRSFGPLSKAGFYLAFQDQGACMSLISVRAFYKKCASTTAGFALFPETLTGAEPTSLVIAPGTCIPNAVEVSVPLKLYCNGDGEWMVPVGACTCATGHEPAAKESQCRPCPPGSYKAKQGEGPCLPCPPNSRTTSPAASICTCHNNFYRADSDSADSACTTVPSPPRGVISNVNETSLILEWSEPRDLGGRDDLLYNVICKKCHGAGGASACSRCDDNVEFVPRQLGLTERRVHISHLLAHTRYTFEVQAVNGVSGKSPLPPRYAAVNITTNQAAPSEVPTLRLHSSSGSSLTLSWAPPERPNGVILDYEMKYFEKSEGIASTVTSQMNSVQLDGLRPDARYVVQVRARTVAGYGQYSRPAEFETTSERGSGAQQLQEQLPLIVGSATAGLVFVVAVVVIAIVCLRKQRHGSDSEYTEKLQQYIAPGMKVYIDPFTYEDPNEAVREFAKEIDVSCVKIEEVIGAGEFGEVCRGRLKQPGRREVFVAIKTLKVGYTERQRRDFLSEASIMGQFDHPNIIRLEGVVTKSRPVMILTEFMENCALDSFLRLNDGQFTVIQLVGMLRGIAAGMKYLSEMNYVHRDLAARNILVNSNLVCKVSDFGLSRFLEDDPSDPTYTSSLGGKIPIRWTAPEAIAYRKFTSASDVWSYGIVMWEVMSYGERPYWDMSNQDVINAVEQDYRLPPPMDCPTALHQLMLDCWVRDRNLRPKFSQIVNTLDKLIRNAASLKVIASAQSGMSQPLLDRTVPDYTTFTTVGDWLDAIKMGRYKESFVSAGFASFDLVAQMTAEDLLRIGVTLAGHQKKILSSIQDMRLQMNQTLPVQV

[3] = molecular target: plurality of kinases (Table 5) (Homo sapiens, UniProt P68400); assay: as above; assay type: biochemical
[4] = molecular target: T2, plurality of kinases (Table 5) (Homo sapiens, UniProt Q08881); assay: as above; assay type: biochemical; details: plate E4; inhibitor 100 uM
T2 sequence (Q08881 1-620): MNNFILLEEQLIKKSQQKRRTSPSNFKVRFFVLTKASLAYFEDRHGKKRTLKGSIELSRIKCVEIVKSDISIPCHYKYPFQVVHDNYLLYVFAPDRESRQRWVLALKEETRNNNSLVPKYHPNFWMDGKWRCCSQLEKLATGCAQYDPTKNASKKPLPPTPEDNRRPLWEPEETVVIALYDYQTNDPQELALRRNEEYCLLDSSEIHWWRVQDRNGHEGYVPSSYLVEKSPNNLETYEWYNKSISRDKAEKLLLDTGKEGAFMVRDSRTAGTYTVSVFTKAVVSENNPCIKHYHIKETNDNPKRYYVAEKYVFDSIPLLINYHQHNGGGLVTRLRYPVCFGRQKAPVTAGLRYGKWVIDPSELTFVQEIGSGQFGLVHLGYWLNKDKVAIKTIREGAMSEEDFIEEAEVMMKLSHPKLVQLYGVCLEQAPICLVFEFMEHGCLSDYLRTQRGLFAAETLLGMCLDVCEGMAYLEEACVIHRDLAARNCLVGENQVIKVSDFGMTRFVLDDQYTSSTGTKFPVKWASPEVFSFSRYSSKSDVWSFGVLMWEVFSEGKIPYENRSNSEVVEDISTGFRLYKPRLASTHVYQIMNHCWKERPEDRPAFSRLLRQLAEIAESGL

[5] = molecular target: plurality of kinases (Table 5) (Homo sapiens, UniProt Q8IVW4); assay: as above; assay type: biochemical; details: plate F12; inhibitor 100 uM
[6] = molecular target: plurality of kinases (Table 5) (Homo sapiens, UniProt Q13557); assay: as above; assay type: biochemical; details: plate B1; inhibitor 100 uM
EPHB3 = EPHB3 (Homo sapiens, UniProt P54753); assay: Dose-response analysis on 10-well kinase microarray (Example III, FIG. 4); assay type: biochemical; details: different inhibitor concentration in each well; substrate MBP, histone, casein
Description: (§1) Microarrays were prepared with 10 wells/slide, wherein the kinases EPHB3, FYN, and PRKCD and their substrate were immobilized in each well. The slide was coated with substrate essentially as described in section 6.1. Subsequently, a gasket with 10 openings was applied to the surface of the slide thereby creating 10 wells, i.e., the gasket provides the barriers between the wells. The accession numbers for the different kinases in the NCBI database are: for FYN: NM_002037; for PRKCD: NM_006254; and for EPHB3: NM_004443.

PRKCD = PRKCD (Homo sapiens, UniProt Q05655); assay: as above; assay type: biochemical; details: different inhibitor concentration in each well; substrate MBP, histone, casein
Description: as §1, with “wells.” for “wells. The accession numbers for the different kinases in the NCBI database are: for FYN: NM_002037; for PRKCD: NM_006254; and for EPHB3: NM_004443.”

39 kinases (Table 4) = assay: Global specificity profiling, single point inhibition on kinase microarrays (Example VII); assay type: biochemical; details: substrates histone, casein, MBP, polyEY, control 2% DMSO
Description: To assess the application of microarray assays for compound profiling, seven known inhibitors (see Table of inhibitors used in global specificity profiling experiment) and one control (2% DMSO) were tested on microarrays printed with a group of kinases (as well as positive and negative controls). […] Twelve spots of each kinase or control were printed on each array, and three arrays were used for each inhibitor. A mixture of generic kinase substrates (histone, casein, MBP, and polyEY) was used in the assay. The average of all signals from the same inhibitor or control experiment was calculated.
To expedite data analysis regarding the kinase families that are inhibited by a particular […], a graphical representation can be constructed of inhibition data for substrates in such a manner that phylogenetically related kinases can be spatially arranged on the graphical representation.

[7] = tested on: 50 different human kinases; assay: Inhibitor specificity profiling on kinase microarray (Example II, FIG. 3); details: 100 μm inhibitor; substrate mixture of MBP, histone and casein; versus control without inhibitor
Description: 1 mL of kinase assay buffer for every 12 glass slides to be probed is prepared. 6 μL of gamma-AT^33P (10 μCi/μL) are added to the assay buffer. The slides are placed in 50 mL conical tubes, laying flat, proteins facing up. 70 μL to 150 μL of the kinase assay buffer with gamma-AT^33P are added onto each slide. Using tweezers, the slide is covered with a hybridization slip, making sure that the solution completely covers the microarray. The conical tube is then closed and placed in a 30° C. incubator. Care should be taken that the slide is laying flat. The reaction is then incubated for 90 minutes. Subsequently, the tubes are removed from the incubator. Approximately 40 mL of dH2O are added to each tube and, using the tweezers, the hybridization slip is removed, the tube is closed and inverted several times for 1-2 minutes to rinse the slide inside the conical tube. The wash solution is then discarded. Approximately 40 mL of dH2O are added again to each tube, the tubes are closed and inverted several times for 1-2 minutes, the wash solution is discarded. The slides are then removed from the tubes and place in a slide box and centrifuged at 4000 rpm for 1-2 minutes.
A phosphor screen (suitable for ^33P) is re-activated for each membrane by exposing it to light for at least 30 minutes. […]

FYN = FYN (Homo sapiens, UniProt P06241); assay: Dose-response analysis on 10-well kinase microarray (Example III, FIG. 4); assay type: biochemical; details: different inhibitor concentration in each well; substrate MBP, histone, casein
Description: as §1, with “wells.” for “wells. The accession numbers for the different kinases in the NCBI database are: for FYN: NM_002037; for PRKCD: NM_006254; and for EPHB3: NM_004443.”

Chain of plurality of kinases (Table 5) (Homo sapiens, UniProt P68400) (P68400 whole entry): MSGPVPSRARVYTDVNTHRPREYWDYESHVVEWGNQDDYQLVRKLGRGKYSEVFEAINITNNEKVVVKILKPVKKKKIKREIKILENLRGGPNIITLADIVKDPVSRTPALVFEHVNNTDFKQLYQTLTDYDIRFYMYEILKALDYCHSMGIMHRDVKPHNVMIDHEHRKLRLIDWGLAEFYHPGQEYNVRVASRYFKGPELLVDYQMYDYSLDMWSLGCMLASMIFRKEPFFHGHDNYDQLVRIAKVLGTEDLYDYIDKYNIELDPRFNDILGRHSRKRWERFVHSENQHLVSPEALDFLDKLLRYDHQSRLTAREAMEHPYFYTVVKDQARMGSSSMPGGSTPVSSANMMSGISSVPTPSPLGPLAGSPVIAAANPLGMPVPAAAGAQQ
Chain of plurality of kinases (Table 5) (Homo sapiens, UniProt Q8IVW4) (Q8IVW4 whole entry): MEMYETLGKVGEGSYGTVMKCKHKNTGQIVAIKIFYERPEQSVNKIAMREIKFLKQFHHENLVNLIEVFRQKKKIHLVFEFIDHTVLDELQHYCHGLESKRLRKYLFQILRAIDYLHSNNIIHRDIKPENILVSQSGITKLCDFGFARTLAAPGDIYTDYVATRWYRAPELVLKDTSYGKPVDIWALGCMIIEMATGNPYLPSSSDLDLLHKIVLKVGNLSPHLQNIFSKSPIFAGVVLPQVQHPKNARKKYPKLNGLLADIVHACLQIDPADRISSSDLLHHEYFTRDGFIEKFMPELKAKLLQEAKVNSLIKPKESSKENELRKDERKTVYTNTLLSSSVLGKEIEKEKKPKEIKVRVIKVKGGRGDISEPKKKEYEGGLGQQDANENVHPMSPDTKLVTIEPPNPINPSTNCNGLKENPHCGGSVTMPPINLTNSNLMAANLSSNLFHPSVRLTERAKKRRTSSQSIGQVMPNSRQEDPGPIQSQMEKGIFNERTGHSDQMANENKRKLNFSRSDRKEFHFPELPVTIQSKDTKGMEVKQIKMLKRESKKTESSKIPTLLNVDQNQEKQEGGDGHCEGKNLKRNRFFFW
Chain of plurality of kinases (Table 5) (Homo sapiens, UniProt O75716) (O75716 whole entry): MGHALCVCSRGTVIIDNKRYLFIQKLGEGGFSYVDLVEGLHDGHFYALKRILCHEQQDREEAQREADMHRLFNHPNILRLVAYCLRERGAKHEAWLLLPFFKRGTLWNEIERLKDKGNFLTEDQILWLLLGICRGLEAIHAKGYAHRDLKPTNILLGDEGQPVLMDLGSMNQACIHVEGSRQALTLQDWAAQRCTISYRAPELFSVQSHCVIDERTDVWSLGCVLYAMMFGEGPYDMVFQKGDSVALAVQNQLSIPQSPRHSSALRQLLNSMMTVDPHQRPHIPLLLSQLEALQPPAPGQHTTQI
Chain of plurality of kinases (Table 5) (Homo sapiens, UniProt Q13557) (Q13557 whole entry): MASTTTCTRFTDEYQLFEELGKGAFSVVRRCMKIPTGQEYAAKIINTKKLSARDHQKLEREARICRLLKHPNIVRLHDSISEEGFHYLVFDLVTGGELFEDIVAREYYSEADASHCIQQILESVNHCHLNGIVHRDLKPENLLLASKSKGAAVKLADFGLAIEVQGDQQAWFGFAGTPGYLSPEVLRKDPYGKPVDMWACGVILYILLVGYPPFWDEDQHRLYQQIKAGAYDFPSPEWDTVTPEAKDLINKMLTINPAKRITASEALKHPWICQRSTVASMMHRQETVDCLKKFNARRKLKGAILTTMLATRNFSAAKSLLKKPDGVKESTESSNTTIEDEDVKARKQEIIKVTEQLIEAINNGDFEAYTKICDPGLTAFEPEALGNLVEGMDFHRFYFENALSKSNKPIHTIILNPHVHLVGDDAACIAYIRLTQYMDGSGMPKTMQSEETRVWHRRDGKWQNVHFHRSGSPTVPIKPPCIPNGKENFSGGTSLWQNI
Chain of FYN (P06241 whole entry): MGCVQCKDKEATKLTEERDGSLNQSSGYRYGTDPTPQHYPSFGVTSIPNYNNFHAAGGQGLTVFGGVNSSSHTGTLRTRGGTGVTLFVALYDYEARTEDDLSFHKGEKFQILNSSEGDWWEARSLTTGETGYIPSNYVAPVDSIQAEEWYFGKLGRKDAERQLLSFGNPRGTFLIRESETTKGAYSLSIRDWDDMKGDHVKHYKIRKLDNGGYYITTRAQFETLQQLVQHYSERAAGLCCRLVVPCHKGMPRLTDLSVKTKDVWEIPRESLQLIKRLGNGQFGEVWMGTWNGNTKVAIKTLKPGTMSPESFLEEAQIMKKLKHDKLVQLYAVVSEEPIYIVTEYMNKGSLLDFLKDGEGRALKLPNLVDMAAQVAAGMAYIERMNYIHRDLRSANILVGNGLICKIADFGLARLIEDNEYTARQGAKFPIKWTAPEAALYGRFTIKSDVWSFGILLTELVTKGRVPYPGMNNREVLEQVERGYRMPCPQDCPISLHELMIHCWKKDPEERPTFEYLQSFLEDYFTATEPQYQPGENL
Chain of PRKCD (Q05655 whole entry): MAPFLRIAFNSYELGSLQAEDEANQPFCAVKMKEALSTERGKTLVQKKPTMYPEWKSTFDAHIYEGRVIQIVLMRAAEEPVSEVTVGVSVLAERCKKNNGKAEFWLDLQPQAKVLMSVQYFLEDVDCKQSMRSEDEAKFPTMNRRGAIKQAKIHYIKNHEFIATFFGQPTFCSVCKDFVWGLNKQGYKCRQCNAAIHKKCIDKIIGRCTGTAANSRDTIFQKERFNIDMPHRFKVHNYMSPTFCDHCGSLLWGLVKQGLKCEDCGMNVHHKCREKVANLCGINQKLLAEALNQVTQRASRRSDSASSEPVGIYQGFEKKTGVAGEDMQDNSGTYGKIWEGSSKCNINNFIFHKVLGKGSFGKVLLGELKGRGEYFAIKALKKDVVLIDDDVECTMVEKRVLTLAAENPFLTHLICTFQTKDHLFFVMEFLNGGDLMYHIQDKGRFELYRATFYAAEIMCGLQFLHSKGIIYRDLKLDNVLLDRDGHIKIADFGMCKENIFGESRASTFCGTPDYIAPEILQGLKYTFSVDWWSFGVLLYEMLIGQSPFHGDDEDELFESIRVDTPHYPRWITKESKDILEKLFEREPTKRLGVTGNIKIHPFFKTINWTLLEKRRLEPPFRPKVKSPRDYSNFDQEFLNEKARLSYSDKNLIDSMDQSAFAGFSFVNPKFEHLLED

Row | Inhibition level, CSNK2A1 ([3]; plate D9, inhibitor 100 uM) | SMILES | Inhibition level, STK16 ([1]; inhibitor 100 uM) | Inhibition level, EPHB3 ([2]; inhibitor 100 uM) | Inhibition level, ITK [4] | Inhibition level, CDKL3 [5] | other results
1 | 2 | O=c1c(-c2ccc(O)cc2)coc2cc(O)cc(O)c12 [Genistein] | 0 | 2 | 2 | 0 | Inhibition level, STK16 ([1]; Genistein <3.7 mM): 0; Inhibition level, EPHB3 ([2]; Genistein, conc. not given): 0; Inhibition level, CSNK2A1 ([3]; plate D9, Genistein, conc. not given): 0
2 | 0 | O=S(=O)(NCCNC/C=C/c1ccc(Br)cc1)c1cccc2cnccc12 [H-89] | 2 | 1 | 1 | 1 | Inhibition level, CAMK2D [6]: 0
3 | 2 | CC(C)(C)n1nc(-c2ccc(Cl)cc2)c2c(N)ncnc21 [PP2] | 2 | 2 | 2 | 2 | inhibition of EPHB3 (dose-response curve) (EPHB3): strongly inhibits; inhibition of PRKCD (dose-response curve) (PRKCD): but not the serine/threonine kinase PRKCD; observed specificity (percentage-of-inhibition data for 39 kinases) (39 kinases (Table 4)): primarily inhibited tyrosine kinases; inhibition of tyrosine kinases [7]: strongly inhibited
4 | – | O=c1c(O)c(-c2ccc(O)c(O)c2)oc2cc(O)cc(O)c12 [Quercetin] | 0 | 2 | 0 | 0 | –
5 | 2 | Cn1cc(C2=C(c3cn(CCCSC(=N)N)c4ccccc34)C(=O)NC2=O)c2ccccc21 [Ro-31-8220] | 1 | 2 | 2 | 2 | observed specificity (percentage-of-inhibition data for 39 kinases) (39 kinases (Table 4)): more specifically targeted the serine-threonine kinases; Inhibition level, STK16 ([1]; Ro-31-8220 90 uM): 2; Inhibition level, EPHB3 ([2]; Ro-31-8220, conc. not given): 0; Inhibition level, CSNK2A1 ([3]; plate D9, Ro-31-8220, conc. not given): 0
6 | – | CN[C@@H]1C[C@H]2O[C@@](C)([C@@H]1OC)n1c3ccccc3c3c4c(c5c6ccccc6n2c5c31)C(=O)NC4 [Staurosporine] | – | – | – | – | inhibition of FYN (dose-response curve) (FYN): strongly inhibits; Inhibition level, STK16 ([1]; Staurosporine 21.5 uM): 2; Inhibition level, EPHB3 ([2]; Staurosporine, conc. not given): 0; Inhibition level, CSNK2A1 [3]: 2

Row | SMILES | Inhibition level, CSNK2A1 ([3]; plate D9, inhibitor 100 uM) | Inhibition level, STK16 ([1]; inhibitor 100 uM) | Inhibition level, EPHB3 ([2]; inhibitor 100 uM) | Inhibition level, ITK [4] | Inhibition level, CDKL3 [5] | other results
7 | N#C/C(=C/c1ccc(O)c(O)c1)C(=O)NCc1ccccc1 [AG 490] | 2 | 0 | 2 | 1 | 2 | –
8 | COc1cc2ncnc(Nc3cccc(Cl)c3)c2cc1OC [AG 1478] | 2 | 0 | 2 | 1 | 1 | –
9 | CC(=O)c1c(O)c(C)c(O)c(Cc2c(O)c3c(c(C(=O)/C=C/c4ccccc4)c2O)OC(C)(C)C=C3)c1O [Rottlerin (Mallotoxin)] | 2 | 0 | 2 | 1 | 1 | Inhibition level, CAMK2D [6]: 2
